The numbers were not newly measured in patent publication US7276500B2, “Substituted amides, their preparation and use” (Abbott GmbH & Co. KG, priority 1998, dated 2007), which cites them from elsewhere.

The subject of one series is calpain. The note with it: literature statement.
A further series relates to cell membranes. The note with it: literature statement.
For series [1], the system named is calpain (cleavage of pp60src in platelets). The conditions noted are these: Oda et al., J. Biol. Chem. 1993.

Consider Ph—CONH—CH(CH2Ph)—CO—COCOOCH3, for which, in the series on calpain, the calpain inhibition entry was “only a weak calpain inhibitor”.
`CC(C)C[C@H](NC(=O)[C@H]1O[C@@H]1C(=O)O)C(=O)NCCCCN=C(N)N` [E 64]: in the series on calpain, the calpain inhibition result is recorded as “good calpain inhibitors”. Also, in the series with cell membranes, the “crossing of cell membranes” value is “cross cell membranes only poorly” and the effect on cells entry is reported as “only a poor effect on cells”.
Take `CCCC[C@@H](C=O)NC(=O)[C@H](CC(C)C)NC(=O)OCc1ccccc1` [calpeptin]: in series [1], the “cleavage of pp60src after activation of platelets” value is “can be prevented”.
As for `CC(=O)N[C@@H](CC(C)C)C(=O)N[C@@H](CC(C)C)C(=O)N[C@H](C=O)CCCNC(=N)N` [leupeptin], in the series with calpain, the calpain inhibition entry was “good calpain inhibitors”. For the same molecule, in the series with cell membranes, the “crossing of cell membranes” value was “cross cell membranes only poorly” and the effect on cells entry is listed as “only a poor effect on cells”.
